Experiment [1] deals with DLD-1 BRCA2−/− cells. Put plainly: Homologous recombination synthetic lethal inhibition of proliferation, DLD-1 BRCA2-/- (Cell Titre Glo 3D). In kind it is cell-based. Conditions: Homo sapiens. In short, it runs like this:
(§1)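 Luminescent Cell Titre Glo 3D readout, taken on day 12 for homologous-recombination-deficient DLD-1 BRCA2−/− and day 7 for the wild-type control, after compound refresh on day 6. Compounds spanned 10 μM to 0.51 nM in three-fold steps; IC50 defined as 50% reduction of average maximum signal.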

Experiment [2] relates to DLD-1 cells. Put plainly: Inhibition of proliferation, DLD-1 BRCA2 wt control (Cell Titre Glo 3D). In kind it is cell-based. Conditions: Homo sapiens. The method in brief:
as §1

Where [3] appears, read: DLD-1, DLD-1 BRCA2-/- proliferation, column head only partly shown, read-out: POLQ PD Prolif Lumin (converted).
[4] abbreviates: DLD-1, DLD-1 BRCA2 wt control proliferation, column head only partly shown, read-out: POLQ PD Prolif Lumin (converted).
[5] abbreviates: DLD-1, 288 h, DLD-1 BRCA2−/− cells, 12 days, read-out: POLQ PD Prolif Lumin BRCA2 −/− mean pIC50 (converted).
Setting [6] is: DLD-1, 168 h, DLD-1 BRCA2 wt cells, 7 days, read-out: POLQ PD Prolif Lumin DLD1 mean pIC50 (converted).
The mark [7] stands for this setting: DLD-1, first proliferation column (c5), DLD-1 BRCA2-/-, read-out: POLQ PD Prolif Lumin (converted).
[8] abbreviates: DLD-1, second proliferation column (c6), DLD-1 BRCA2 wt control, read-out: POLQ PD Prolif Lumin (converted).

Structures are written as SMILES. Like-named read-outs stand apart in the source and are kept apart here.

Take `CC(COc1ccc(-c2nc3c(OC4(C)CC4)ncnc3n2Cc2cccc(Cl)c2)c(Cl)c1)CC(=O)O` (single isomer, unassigned) [Example T294, 4-(3-chloro-4-(9-(3-chlorobenzyl)-6-(1-methylcyclopropoxy)-9H-purin-8-yl)phenoxy)-3-methylbutanoic acid]: the IC50 was 158 nM in experiment [1] (setting [3]) and more than 10000 nM in experiment [2] (setting [4]).
Regarding `CC(C)Oc1ccc2c(c1)nc(-c1ccc(OCCC3CCCN3C)cc1Cl)n2Cc1ccccc1` (single isomer, unassigned) [Example A8, 1-benzyl-2-(2-chloro-4-(2-(1-methylpyrrolidin-2-yl)ethoxy)phenyl)-5-isopropoxy-1H-benzo[d]imidazole], the IC50 in experiment [1] (setting [5]) is 126 nM; in experiment [2] (setting [6]), 501 nM.
With `C[C@H]1CNCCN1CCOc1ccc(-c2nc3c(OC4(C)CC4)ncnc3n2Cc2cc(Cl)ccn2)c(Cl)c1` [Example T523, (S)-8-(2-chloro-4-(2-(2-methylpiperazin-1-yl)ethoxy)phenyl)-9-((4-chloropyridin-2-yl)methyl)-6-(1-methylcyclopropoxy)-9H-purine], the IC50 is 200 nM in experiment [1] (setting [7]) and more than 10000 nM in experiment [2] (setting [8]).
On to `COc1cc(OCCN2CCN(C)CC2)ccc1-c1nc2c(OC3(C)CC3)ncnc2n1Cc1ccccc1` [Example H3, 9-benzyl-8-(2-methoxy-4-(2-(4-methylpiperazin-1-yl)ethoxy)phenyl)-6-(1-methylcyclopropoxy)-9H-purine], for which the values for the IC50 in experiment [1] (setting [5]) and in experiment [2] (setting [6]) were 631 nM and 7940 nM, respectively.
For `CC1(Oc2ncnc3c2nc(-c2cccc(OC4CCNCC4)c2Cl)n3Cc2ccccc2)CC1` [Example D11, 9-benzyl-8-(2-chloro-3-(piperidin-4-yloxy)phenyl)-6-(1-methylcyclopropoxy)-9H-purine], in that order: 251 nM and 3160 nM.
For `Cc1ccnc(Cn2c(-c3ccc(O[C@@H]4CCNC4=O)cc3Cl)nc3c(OC4(C)CC4)ncnc32)c1` [Example T186, (R)-3-(3-chloro-4-(6-(1-methylcyclopropoxy)-9-((4-methylpyridin-2-yl)methyl)-9H-purin-8-yl)phenoxy)pyrrolidin-2-one], the IC50 in experiment [1] (setting [7]) is 251 nM; in experiment [2] (setting [8]), more than 10000 nM.
Take `C[C@@H](CCOc1ccc(-c2nc3c(OC4(C)CC4)ncnc3n2Cc2cccc(C#N)c2)c(Cl)c1)C(=O)O` [Example U8, (S)-4-(3-chloro-4-(9-(3-cyanobenzyl)-6-(1-methylcyclopropoxy)-9H-purin-8-yl)phenoxy)-2-methylbutanoic acid]: the IC50 is 398 nM in experiment [1] (DLD-1, DLD-1 BRCA2 −/−, mean, read-out: POLQ PD Prolif Lumin BRCA2 −/− mean pIC50 (converted)) and more than 6310 nM in experiment [2] (DLD-1, DLD1 BRCA2 wt, mean, read-out: POLQ PD Prolif Lumin DLD1 mean pIC50 (converted)).
Take `Cc1ccnc(Cn2c(-c3ccc(NC(=O)[C@@H](C)O)cc3Cl)nc3c(OC4(C)CC4)ncnc32)c1` [Example T121, (R)-N-(3-chloro-4-(6-(1-methylcyclopropoxy)-9-((4-methylpyridin-2-yl)methyl)-9H-purin-8-yl)phenyl)-2-hydroxypropanamide]: the IC50 in experiment [1] (setting [7]) was 316 nM; in experiment [2] (setting [8]) it was more than 10000 nM.
With `Cc1ccnc(Cn2c(-c3ccc(OCCCN4CC[C@@H](O)C4)cc3Cl)nc3c(OC4(C)CC4)ncnc32)c1` [Example T592, (R)-1-(3-(3-chloro-4-(6-(1-methylcyclopropoxy)-9-((4-methylpyridin-2-yl)methyl)-9H-purin-8-yl)phenoxy)propyl)pyrrolidin-3-ol], the IC50 was 200 nM in experiment [1] (DLD-1, first proliferation column, DLD-1 BRCA2-/-, read-out: POLQ PD Prolif Lumin (converted)) and more than 10000 nM in experiment [2] (DLD-1, second proliferation column, DLD-1 BRCA2 wt control, read-out: POLQ PD Prolif Lumin (converted)).
As for `Cc1ncc(Cn2c(-c3ccc(OCCN4CCNCC4)cc3Cl)nc3c(OC4(C)CC4)ncnc32)s1` [Example T249, 5-((8-(2-chloro-4-(2-(piperazin-1-yl)ethoxy)phenyl)-6-(1-methylcyclopropoxy)-9H-purin-9-yl)methyl)-2-methylthiazole], the IC50 in experiment [1] (setting [3]) is 3980 nM; in experiment [2] (setting [4]) it was more than 10000 nM.
For `Cc1cc(OCCCN2CCNCC2)ncc1-c1nc2c(OC3(C)CC3)ncnc2n1Cc1ccccc1` [Example G1, 9-benzyl-8-(4-methyl-6-(3-(piperazin-1-yl)propoxy)pyridin-3-yl)-6-(1-methylcyclopropoxy)-9H-purine], the IC50 in experiment [1] (setting [5]) is 501 nM; in experiment [2] (setting [6]), 6310 nM.

Values taken from patent US20250195530A1, “POLQ INHIBITORS” (ASTRAZENECA AB, priority 2022, published 2025).
